Results reported in PubChem BioAssay (NCI).
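Grown in 96-well plates, cells were treated for 48 hours with each compound at five concentrations. Insufficient inhibition: endpoint recorded as highest concentration tested. TGI denotes the concentration required for complete inhibition of growth.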

Tests used:
Assay in all cases: NCI anticancer screen, dose series, 48 h
[1] = tested on: 786-0 renal
[2] = tested on: A498 renal
[3] = tested on: A549 NSCLC
[4] = tested on: ACHN renal
[5] = tested on: BT-549 breast
[6] = tested on: CAKI-1 renal
[7] = tested on: COLO 205 colon
[8] = tested on: DU-145 prostate
[9] = tested on: EKVX NSCLC
[10] = tested on: HCC-2998 colon
[11] = tested on: HCT-116 colon
[12] = tested on: HCT-15 colon
[13] = tested on: HL-60(TB) leukemia
[14] = tested on: HOP-62 NSCLC
[15] = tested on: HOP-92 NSCLC
[16] = tested on: HS 578T breast
[17] = tested on: HT29 colon
[18] = tested on: IGROV1 ovarian
[19] = tested on: K-562 leukemia
[20] = tested on: KM12 colon
[21] = tested on: LOX IMVI melanoma
[22] = tested on: M14 melanoma
[23] = tested on: MALME-3M melanoma
[24] = tested on: MCF7 breast
[25] = tested on: MDA-MB-231 breast
[26] = tested on: MDA-MB-435
[27] = tested on: MDA-N
[28] = tested on: MOLT-4 leukemia
[29] = tested on: NCI-H226 lung
[30] = tested on: NCI-H23 lung
[31] = tested on: NCI-H460 lung
[32] = tested on: NCI-H522 lung
[33] = tested on: NCI/ADR-RES ovarian
[34] = tested on: OVCAR-3 ovarian
[35] = tested on: OVCAR-4 ovarian
[36] = tested on: OVCAR-5 ovarian
[37] = tested on: OVCAR-8 ovarian
[38] = tested on: PC-3 prostate
[39] = tested on: RPMI-8226 leukemia
[40] = tested on: RXF 393 renal
[41] = tested on: SF-268 CNS
[42] = tested on: SF-295 CNS
[43] = tested on: SF-539 CNS
[44] = tested on: SK-MEL-2 melanoma
[45] = tested on: SK-MEL-28 melanoma
[46] = tested on: SK-MEL-5 melanoma
[47] = tested on: SK-OV-3 ovarian
[48] = tested on: SN12C renal
[49] = tested on: SNB-19 CNS
[50] = tested on: SNB-75 CNS
[51] = tested on: SR leukemia
[52] = tested on: SW-620 colon
[53] = tested on: T-47D breast
[54] = tested on: TK-10 renal
[55] = tested on: U251 CNS
[56] = tested on: UACC-257 melanoma
[57] = tested on: UACC-62 melanoma
[58] = tested on: UO-31 renal
[59] = tested on: CCRF-CEM leukemia

## CC(=O)NC1C(OCc2ccccc2)OC(CO)C(O)C1OC(C)C(=O)NC(C(=O)NC(CCC(=O)NCCCCNc1c2ccccc2nc2cccc([N+](=O)[O-])c12)C(N)=O)C(C)C (stereo unspecified)
[1]
  TGI: 5.45 µM
[2]
  TGI: 4.74 µM
[3]
  TGI: 7.77 µM
[4]
  TGI: 9.18 µM
[5]
  TGI: 20.8 µM
[6]
  TGI: > 100 µM
[7]
  TGI: 11.6 µM
[8]
  TGI: 19.6 µM
[9]
  TGI: 10.1 µM
[10]
  TGI: 3.47 µM
[11]
  TGI: 10.5 µM
[12]
  TGI: 40.2 µM
[13]
  TGI: 6.77 µM
[14]
  TGI: 11.7 µM
[15]
  TGI: 4.52 µM
[16]
  TGI: 42.6 µM
[17]
  TGI: 8.71 µM
[18]
  TGI: 10.4 µM
[19]
  TGI: > 100 µM
[20]
  TGI: 7.68 µM
[21]
  TGI: 4.68 µM
[22]
  TGI: 3.32 µM
[23]
  TGI: 4.08 µM
[24]
  TGI: > 44 µM
[25]
  TGI: 25.5 µM
[26]
  TGI: 2.84 µM
[27]
  TGI: 3.67 µM
[28]
  TGI: 26.8 µM
[29]
  TGI: 12.3 µM
[30]
  TGI: 4.75 µM
[31]
  TGI: 9.93 µM
[32]
  TGI: 0.511 µM
[33]
  TGI: > 100 µM
[34]
  TGI: 6.14 µM
[35]
  TGI: 3.97 µM
[36]
  TGI: 19.8 µM
[37]
  TGI: 9.62 µM
[38]
  TGI: > 30.8 µM
[39]
  TGI: 2.39 µM
[40]
  TGI: 3.56 µM
[41]
  TGI: 13.1 µM
[42]
  TGI: 43.1 µM
[43]
  TGI: 11.2 µM
[44]
  TGI: 12.5 µM
[45]
  TGI: 7.19 µM
[46]
  TGI: 7.39 µM
[47]
  TGI: > 63.3 µM
[48]
  TGI: 9.53 µM
[49]
  TGI: 34.5 µM
[50]
  TGI: 10.5 µM
[51]
  TGI: 2.61 µM
[52]
  TGI: > 32.9 µM
[53]
  TGI: > 38.2 µM
[54]
  TGI: 32.4 µM
[55]
  TGI: > 56.7 µM
[56]
  TGI: 15.9 µM
[57]
  TGI: 5.03 µM
[58]
  TGI: 13.4 µM

## O=C(Cc1ccc(Cl)c(Cl)c1)NCC1(N2CCCCC2)CCCCC1
[1]
  TGI: > 100 µM
[2]
  TGI: > 100 µM
[3]
  TGI: > 100 µM
[4]
  TGI: > 100 µM
[5]
  TGI: > 100 µM
[6]
  TGI: > 100 µM
[59]
  TGI: > 100 µM
[8]
  TGI: > 100 µM
[9]
  TGI: > 100 µM
[10]
  TGI: 39.1 µM
[11]
  TGI: > 100 µM
[12]
  TGI: > 100 µM
[13]
  TGI: > 100 µM
[14]
  TGI: > 100 µM
[15]
  TGI: > 100 µM
[16]
  TGI: > 100 µM
[17]
  TGI: > 100 µM
[18]
  TGI: > 100 µM
[19]
  TGI: > 100 µM
[20]
  TGI: > 100 µM
[21]
  TGI: > 100 µM
[22]
  TGI: 34.4 µM
[23]
  TGI: 47.2 µM
[24]
  TGI: > 100 µM
[25]
  TGI: > 100 µM
[26]
  TGI: > 100 µM
[27]
  TGI: > 100 µM
[28]
  TGI: > 100 µM
[30]
  TGI: > 100 µM
[31]
  TGI: > 100 µM
[32]
  TGI: > 100 µM
[33]
  TGI: > 100 µM
[34]
  TGI: > 100 µM
[35]
  TGI: > 100 µM
[36]
  TGI: > 100 µM
[37]
  TGI: > 100 µM
[38]
  TGI: > 100 µM
[39]
  TGI: > 100 µM
[40]
  TGI: 53 µM
[41]
  TGI: > 100 µM
[42]
  TGI: > 100 µM
[44]
  TGI: > 100 µM
[47]
  TGI: > 100 µM
[48]
  TGI: > 100 µM
[49]
  TGI: > 100 µM
[51]
  TGI: > 100 µM
[52]
  TGI: > 100 µM
[53]
  TGI: 89.7 µM
[54]
  TGI: > 100 µM
[55]
  TGI: > 100 µM
[56]
  TGI: 36.7 µM
[57]
  TGI: 42 µM
[58]
  TGI: > 100 µM

## Nc1ccc(S(=O)(=O)Nc2nc3ccccc3nc2N2CCCCCC2)cc1
[1]
  TGI: > 100 µM
[3]
  TGI: > 100 µM
[4]
  TGI: > 100 µM
[5]
  TGI: 28.2 µM
[6]
  TGI: 82.7 µM
[59]
  TGI: > 100 µM
[7]
  TGI: 33.4 µM
[8]
  TGI: > 100 µM
[9]
  TGI: > 100 µM
[10]
  TGI: 33.4 µM
[11]
  TGI: 33.2 µM
[12]
  TGI: 95.5 µM
[13]
  TGI: 52 µM
[14]
  TGI: 52.6 µM
[15]
  TGI: 63.6 µM
[16]
  TGI: > 100 µM
[17]
  TGI: > 100 µM
[18]
  TGI: > 100 µM
[19]
  TGI: 52 µM
[20]
  TGI: > 100 µM
[21]
  TGI: 33.5 µM
[22]
  TGI: > 100 µM
[23]
  TGI: 85.9 µM
[24]
  TGI: > 100 µM
[25]
  TGI: > 100 µM
[26]
  TGI: 41.1 µM
[27]
  TGI: > 100 µM
[28]
  TGI: 55.3 µM
[29]
  TGI: > 100 µM
[30]
  TGI: 47.7 µM
[31]
  TGI: 61.2 µM
[32]
  TGI: > 100 µM
[33]
  TGI: > 100 µM
[34]
  TGI: 40.2 µM
[35]
  TGI: 50.9 µM
[36]
  TGI: > 100 µM
[37]
  TGI: > 100 µM
[38]
  TGI: > 100 µM
[39]
  TGI: 42.5 µM
[40]
  TGI: 35.5 µM
[41]
  TGI: > 100 µM
[42]
  TGI: 57.3 µM
[43]
  TGI: 35.7 µM
[44]
  TGI: 40.8 µM
[45]
  TGI: 39.4 µM
[46]
  TGI: 30.1 µM
[47]
  TGI: > 100 µM
[48]
  TGI: 44.9 µM
[49]
  TGI: > 100 µM
[50]
  TGI: > 100 µM
[51]
  TGI: > 100 µM
[52]
  TGI: 54.1 µM
[53]
  TGI: > 100 µM
[54]
  TGI: > 100 µM
[55]
  TGI: 46.4 µM
[56]
  TGI: > 100 µM
[57]
  TGI: 39.8 µM
[58]
  TGI: 40.8 µM

## O=C1OC[C@H]2[C@@H]1[C@H]1O[C@@H]2C2=C(CCC2)C1=O
[1]
  TGI: > 100 µM
[2]
  TGI: > 100 µM
[3]
  TGI: > 100 µM
[4]
  TGI: > 100 µM
[5]
  TGI: > 100 µM
[59]
  TGI: > 100 µM
[7]
  TGI: > 100 µM
[8]
  TGI: > 100 µM
[9]
  TGI: > 100 µM
[10]
  TGI: > 100 µM
[11]
  TGI: > 100 µM
[12]
  TGI: > 100 µM
[13]
  TGI: > 100 µM
[14]
  TGI: > 100 µM
[15]
  TGI: > 100 µM
[16]
  TGI: > 100 µM
[17]
  TGI: > 100 µM
[18]
  TGI: > 100 µM
[19]
  TGI: > 100 µM
[20]
  TGI: > 100 µM
[21]
  TGI: > 100 µM
[22]
  TGI: > 100 µM
[23]
  TGI: > 100 µM
[24]
  TGI: > 100 µM
[25]
  TGI: > 100 µM
[26]
  TGI: > 100 µM
[27]
  TGI: > 100 µM
[29]
  TGI: > 100 µM
[30]
  TGI: > 100 µM
[31]
  TGI: > 100 µM
[32]
  TGI: > 100 µM
[33]
  TGI: > 100 µM
[34]
  TGI: > 100 µM
[35]
  TGI: > 100 µM
[36]
  TGI: > 100 µM
[37]
  TGI: > 100 µM
[38]
  TGI: > 100 µM
[39]
  TGI: > 100 µM
[40]
  TGI: > 100 µM
[41]
  TGI: > 100 µM
[42]
  TGI: > 100 µM
[43]
  TGI: > 100 µM
[44]
  TGI: > 100 µM
[45]
  TGI: > 100 µM
[46]
  TGI: > 100 µM
[47]
  TGI: > 100 µM
[48]
  TGI: > 100 µM
[49]
  TGI: > 100 µM
[50]
  TGI: > 100 µM
[51]
  TGI: > 100 µM
[52]
  TGI: > 100 µM
[53]
  TGI: > 100 µM
[54]
  TGI: > 100 µM
[55]
  TGI: > 100 µM
[56]
  TGI: > 100 µM
[57]
  TGI: > 100 µM
[58]
  TGI: > 100 µM
